Measurements published in patent publication US7795285B2, “Anti-trypanosomiasis agent” (Fujifilm Corporation, priority 2004, dated 2010).
Where two headings read alike, the source gives them in different places. Blank lines part the entries; values can stand above or below the compound they belong to.

Tests used:
Format in all cases: cell-based
[1] = Growth inhibition test of rat L6 cells (Alamar Blue, 72 hours); conditions: 72 hours culture, Table 1, read-out: 50% growth inhibiting concentration Cytotoxicity L6
Procedure: (§1) Rat derived-L6 cells (rat skeletal myoblast cell) were used. As medium, RPMI1640 medium was supplemented so that L-glutamin (200 mM) is 1%, and fetal bovine serum 10%, and the medium was cultured under CO2 concentration 5%, at 37° C. The compounds of the present invention and the target drugs to be used in the test were dissolved in DMSO, to make a test solution of a predetermined concentration. Pre-culture was conducted and medium containing cells which have entered the logarithmic growth phase was taken to wells of a 96-well culture plate. Then, a test solution containing drug of a predetermined concentration or a drug-free DMSO was added. Test solutions were taken by duplicates. Culture plate was cultured for 72 hours in an incubator, to test the growth inhibition activity. Test was conducted as follows.
(§2) 10 μL of Alamar Blue aqueous solution was added to each well, and the resultant was further cultured for 2 hours. Next, the culture plate was placed on a fluorescent micro-plate reader (Spectramax Gemeni XS; US Molecular Device), radiated at an excited wavelength of 536 nm. Fluorescent intensity was measured at 588 nm, and residual rate of L6 cells of the test solution added group, and that of the control was calculated. From the cell residual rate obtained in the above, growth inhibition rate to L6 cells was calculated, to obtain a 50% growth inhibition concentration (IC50). Growth inhibition rate (%)={(C−A)/(B−A)}×100 A: primary cell count B: cell count of control 3 days after C: cell count of wells added with a sample, 3 days after […]

[2] = system: Trypanosoma cruzi (Tulahuen C2C4 strain); assay: American trypanosome protozoa growth inhibition screening test (CPRG/Nonidet, 96 hours); conditions: for IC50: Trypanosoma cruzi, Tulahuen C2C4 strain in rat L6 cells, 96 hours culture, read-out: 50% growth inhibiting concentration Trypanosoma cruzi; for Selective toxicity: chemotherapy index, rat L6 cells versus American trypanosome protozoa
Procedure: In the present example, amastigote and trypomastigote infected with rat L6 cells of protozoa of Trypanosoma cruzi (Tulahuen C2C4 strain) were used. As medium used in the test, RPMI 1640 medium containing L6 cells was supplemented so that L-glutamine (200 mM) becomes 1%, fetal bovine serum becomes 10%, which was cultured under CO2 concentration 5%, at 37° C.
The compounds of the present invention to be used in the test and the positive target agent (benznidazole) were dissolved in DMSO to make a test solution of a predetermined concentration. A medium containing 5×10^3 protozoa was added to wells of a 96-well culture plate, and pre-cultured for 48 hours. After replacing the medium, test solution containing drug of a predetermined concentration or a drug-free DMSO was added. Test solutions were taken by duplicates. After culturing the culture plate in an incubator for 96 hours, growth inhibition activity was tested. Test was conducted as follows.
50 μL of CPRG/Nonidet was added to each well, and allowed to rest for 2 to 6 hours. Next, the culture plate was placed on a fluorescent micro-plate reader, and the absorbance was measured at 540 nm. Growth inhibition rate was calculated with the following formula based on the protozoan infection rate which was obtained by calculating trypanosome infection rate of test solution added group and control group, to obtain a 50% growth inhibition concentration (IC50). Growth inhibition rate (%)={1−(b−a)/(c−a)}×100 a: early infection rate b: infection rate when test solution was added c: infection rate of the control
Chemotherapy index used as an index of selective toxicity against American trypanosome protozoa was calculated with the following formula, to determine drug efficacy.

[3] = system: Trypanosoma brucei rhodensiense (STIB 900 strain); assay: African trypanosome protozoa growth inhibition screening test (Alamar Blue, 72 hours); conditions: for IC50: Trypanosoma brucei, read-out: 50% growth inhibiting concentration Trypanosoma brucei rhod.; for Selective toxicity: chemotherapy index, rat L6 cells versus African trypanosome protozoa
Procedure: In the present example, protozoa of Trypanosoma brucei rhodensiense (STIB 900 strain), a trypamastigote living in blood stream, was used. The medium used in the experiment was a MEM medium which was sterilized with a filter and supplemented with 25 mM N-2-hydroxyethylpiperazine-2-ethansulfonic acid (HEPES), 1 g/L glucose, 1% MEM non-essential amino acid, 0.2 mM 2-mercaptoethanol, 2 mM sodium pyruvate, 0.1 mM hypoxanthine, and 15% heat-treated horse serum. The protozoa was cultured in an atmosphere of CO2 concentration 5%, at a temperature of 37° C.
The compounds of the present invention to be used in the present test and the positive target drug (melarsoprol) were dissolved in DMSO to make a test solution of a predetermined concentration. A medium containing 8×10^3 protozoa, and a test solution containing a drug of a predetermined concentration or a drug-free DMSO were added to wells of a 96-well culture plate, and subsequently, medium was added so that the amount in each well becomes 100 μL. Test solutions were taken by duplicates. After culturing the culture plate for 72 hours in an incubator, growth inhibition activity was tested. Test was conducted as follows.
10 μL of Alamar Blue aqueous solution was added to each well, and the resultant was further cultured for 2 hours. Next, the culture plate was placed on a fluorescent micro-plate reader (Spectramax Gemeni XS; US Molecular Device), radiated at an excited wavelength of 536 nm. Fluorescent intensity was measured at 588 nm, to calculate the trypanosome protozoa infected rate of the test solution added-group, and of the control group. From the protozoan infection rate obtained in the above, growth inhibition rate was calculated with the following formula, to obtain a 50% growth inhibition concentration (IC50). Growth inhibition rate (%)={1−(b−a)/(c−a)}×100 a: early infection rate b: infection rate when test solution was added c: infection rate of the control
Chemotherapy index used as an index of selective toxicity against African trypanosome protozoa was calculated with the following formula, to determine drug efficacy.

[4] = system: Rat derived-L6 cells (rat skeletal myoblast cell); assay: Growth inhibition test of rat L6 cells (Alamar Blue, 72 hours); conditions: 72 hours culture, Table 2, read-out: 50% growth inhibiting concentration Cytotoxicity L6
Procedure: as §1, §2

[5] = L6 cells (rat skeletal myoblasts)
[6] = STIB900, STIB 900 strain, bloodstream form, 72 hours culture

SMILES: CCn1c(=O)c(=C2C=CN(C)C=C2)s/c1=C\c1sc2c3ccccc3ccc2[n+]1CC [A-1]
IC50 at 72 h [1, 5]: 134 µM
IC50 [2]: 48 µM
Selective toxicity [2]: 2.8
IC50 [3, 6]: 0.76 µM
Selective toxicity [3]: 176

SMILES: CCn1c(=O)/c(=C2\C=CN(C)c3ccccc32)s/c1=C\c1oc2ccccc2[n+]1CC [A-2]
IC50 at 72 h [1, 5]: 6.4 µM
IC50 [2]: 0.53 µM
Selective toxicity [2]: 10
IC50 [3, 6]: 0.012 µM
Selective toxicity [3]: 533

SMILES: CCn1c(=O)/c(=C2\SCCN2C)s/c1=C\c1sc2ccc3ccccc3c2[n+]1CC [B-1]
IC50 at 72 h [1, 5]: 193 µM
IC50 [2]: 40 µM
Selective toxicity [2]: 4.8
IC50 [3, 6]: 0.095 µM
Selective toxicity [3]: 2030

SMILES: CCn1c(=O)/c(=C2\Sc3ccccc3N2C)s/c1=C\c1cccc[n+]1CCOCCOCCOC [B-5]
IC50 at 72 h [1, 5]: 125 µM
IC50 [2]: 29 µM
Selective toxicity [2]: 4.3
IC50 [3, 6]: 0.37 µM
Selective toxicity [3]: 338

IC50 [3, 6]: 0.94 µM
SMILES: CCn1c(=O)/c(=C2\Sc3ccccc3N2C)s/c1=C\c1cccc[n+]1CCOCCOCCO [B-6]
IC50 at 72 h [1, 5]: 61.9 µM
Selective toxicity [3]: 66

SMILES: CCn1c(=O)/c(=C2\Oc3ccc4ccccc4c3N2C)s/c1=C\c1scc(C)[n+]1C [B-9]
IC50 at 72 h [1, 5]: 14.2 µM
IC50 [2]: 0.22 µM
Selective toxicity [2]: 65
IC50 [3, 6]: 0.024 µM
Selective toxicity [3]: 592

SMILES: CCn1c(=O)/c(=C2\Oc3c(ccc4ccccc34)N2C)s/c1=C\C1=[N+](CC)CCS1 [B-10]
IC50 at 72 h [1, 5]: 18.5 µM
IC50 [2]: 0.35 µM
Selective toxicity [2]: 53
IC50 [3, 6]: 0.035 µM
Selective toxicity [3]: 529

SMILES: CCn1c(=O)/c(=c2\s/c(=C3/Sc4ccccc4N3C)c(=O)n2CC)s/c1=C\c1sc2ccccc2[n+]1C [C-1]
IC50 [4]: > 140 µM
IC50 at 72 h [1, 5]: > 140 µM
IC50 [2]: 14 µM
Selective toxicity [2]: >10
IC50 [3, 6]: 0.009 µM
Selective toxicity [3]: >15600

SMILES: O=C(Cn1ccnc1[N+](=O)[O-])NCc1ccccc1 [benznidazole, reference compound]
IC50 [2]: 0.87 µM

SMILES: Nc1nc(N)nc(Nc2ccc([As]3SCC(CO)S3)cc2)n1 (stereo not shown) [melarsoprol, reference compound]
IC50 at 72 h [1]: 7.8 µM
IC50 ([3]; STIB900, 72 h): 0.006 µM
Selective toxicity [3]: 1300
